The results in this text go back to ChEMBL document CHEMBL1159135, “Enzymatic fucosylations with purine-diphosphate-fucoses (PDP-Fucoses)” (Bioorg Med Chem Lett, 1996).

Assay [1] deals with T1, 3-galactosyl-N-acetylglucosaminide 4-alpha-L-fucosyltransferase FUT3 (Homo sapiens) (UniProt P21217).
T1 sequence (whole entry): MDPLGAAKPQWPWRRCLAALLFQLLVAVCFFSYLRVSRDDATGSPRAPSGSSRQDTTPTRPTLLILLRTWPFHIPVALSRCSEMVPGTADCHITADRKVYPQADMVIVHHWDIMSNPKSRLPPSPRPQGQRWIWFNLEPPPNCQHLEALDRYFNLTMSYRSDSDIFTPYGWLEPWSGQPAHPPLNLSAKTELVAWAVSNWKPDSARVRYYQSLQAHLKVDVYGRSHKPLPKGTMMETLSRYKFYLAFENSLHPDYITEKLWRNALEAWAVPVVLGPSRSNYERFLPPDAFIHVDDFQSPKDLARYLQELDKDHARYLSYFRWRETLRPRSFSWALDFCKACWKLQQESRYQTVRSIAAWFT
As to the kind of experiment: In vitro inhibition of Fucosyltransferase 3. To be noted: concentration not given here. Details: concentration or dose not given beside the values.

The target of assay [2] is T2, 4-galactosyl-N-acetylglucosaminide 3-alpha-L-fucosyltransferase FUT6 (Homo sapiens) (UniProt P51993).
T2 sequence (whole entry): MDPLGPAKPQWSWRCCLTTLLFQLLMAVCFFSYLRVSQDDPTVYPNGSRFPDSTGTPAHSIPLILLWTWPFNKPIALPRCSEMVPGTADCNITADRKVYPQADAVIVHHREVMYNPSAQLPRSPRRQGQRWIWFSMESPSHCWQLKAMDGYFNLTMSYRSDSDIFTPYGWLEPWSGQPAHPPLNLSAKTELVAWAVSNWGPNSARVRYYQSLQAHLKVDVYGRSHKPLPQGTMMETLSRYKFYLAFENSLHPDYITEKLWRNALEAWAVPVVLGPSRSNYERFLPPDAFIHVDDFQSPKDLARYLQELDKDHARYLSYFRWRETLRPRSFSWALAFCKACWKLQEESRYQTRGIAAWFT
As to the kind of experiment: In vitro inhibition of Fucosyltransferase 6. The conditions noted are these: concentration not given here. On the set-up: concentration or dose not given beside the values.

Broadly, the inhibition is the relative decrease from the control value, in per cent. In the case of `C[C@@H]1O[C@H](OP(=O)(O)OP(=O)(O)OC[C@H]2O[C@@H](n3cnc4c(=O)[nH]c(=O)[nH]c43)[C@H](O)[C@@H]2O)[C@@H](O)[C@@H](O)[C@H]1O`, the inhibition came out at 73% in assay [1] and 62% in assay [2].

For `C[C@@H]1O[C@H](OP(=O)(O)OP(=O)(O)OC[C@H]2O[C@@H](n3cnc4c(O)ncnc43)[C@H](O)[C@@H]2O)[C@@H](O)[C@@H](O)[C@H]1O`, the inhibition came out at 68% in assay [1] and 72% in assay [2].

For `C[C@@H]1O[C@H](OP(=O)(O)OP(=O)(O)OP(=O)(O)OC[C@H]2O[C@@H](n3cnc4c(O)nc(N)nc43)[C@H](O)[C@@H]2O)[C@H](O)[C@@H](O)[C@@H]1O`, the inhibition in assay [1] and in assay [2] was 0% in each case.

Take `C[C@@H]1O[C@H](OP(=O)(O)OP(=O)(O)OC[C@H]2O[C@@H](n3cnc4c(O)nc(N)nc43)[C@H](O)[C@@H]2O)[C@H](O)[C@@H](O)[C@@H]1O`: the figures for the inhibition in assay [1] and in assay [2] were 96% and 83%, respectively.

Regarding `C[C@@H]1O[C@H](OP(=O)(O)OP(=O)(O)OC[C@H]2O[C@@H](n3cnc4c(N)ncnc43)[C@H](O)[C@@H]2O)[C@@H](O)[C@@H](O)[C@H]1O`, the figures for the inhibition in assay [1] and in assay [2] were 76% and 60%, respectively.
